Values joined by “and” are separate entries in the source; they are usually repeats but may differ in a detail not shown here. Equal entries are not always repeated. Where two headings read alike, the source gives them in different places.
Tests used:
[1] = tested on: promastigotes of Leishmania donovani; assay: Effect on promastigotes of Leishmania donovani (MTT viability assay, 72 h); assay type: cell-based; conditions: L. donovani promastigotes; for IC50: read-out: IC50 (half maximal inhibitory concentration)
Protocol: Leishmania (Leishmania) donovani (MHOM/ET/1967/HU3) was provided by Oswaldo Cruz Institute Leishmania Collection-Fiocruz-RJ-Brazil. Promastigotes were maintained in vitro at 26 °C in Schneider's medium, pH 7 (20% heat-inactivated fetal bovine serum (FBS), 100 U/mL penicillin, […] streptomycin, and 2% of male urine), as previously described. […] The plates were incubated for 72 h in a biological oxygen demand (B.O.D.) incubator at 26 °C. […] [30].The absorbance was measured using an ELISA plate reader (ELx800, BIOTEK) at 540 nm. Amphotericin® was used as a positive control. The viability of promastigotes incubated in the presence of different concentrations of adducts was determined by comparing to a culture control (L. donovani cultivated in Schneider only). The concentration that caused a 50% reduction in cell viability (IC50) was calculated by Probit analysis (SPSS 13.0 for Windows). Each experiment was performed in duplicate and repeated at least three times.

[2] = tested on: acetic acid-induced abdominal writhes; set-up: method as in earlier work; conditions: mice, ref 16 (Capim et al., Bioorg. Med. Chem. 2013); cited from earlier work
Leishmania = conditions: read-out: IC50 (leishmanicidal activity), cited from earlier work
human red blood cells = assay: Haemolytic assay towards human red blood cells; assay type: cell-based; conditions: HC50 red blood cells / IC50 L. donovani promastigotes
Protocol: Briefly, promastigotes in the logarithmic growth phase were cultured in 96-well cell culture plates at 1 × 10^6 parasites per well in […] of Schneider's medium with increasing concentrations of 3.12, 6.25, 12.5, 25, 50, 100, 200, and 400 µg/mL of Morita-Baylis-Hillman adduct. The plates were incubated for 72 h in a biological oxygen demand (B.O.D.) incubator at 26 °C. Cytotoxicity to promastigotes was evaluated by the 3-(4,5-dimethyl-2-thiazole)-2,5-diphenyltetrazolium bromide (MTT) colorimetric assay as described by Valadares et al..The absorbance was measured using an ELISA plate reader (ELx800, BIOTEK) at 540 nm. Amphotericin® was used as a positive control. The viability of promastigotes incubated in the presence of different concentrations of adducts was determined by comparing to a culture control (L. donovani cultivated in Schneider only). The concentration that caused a 50% reduction in cell viability (IC50) was calculated by Probit analysis (SPSS 13.0 for Windows). Each experiment was performed in duplicate and repeated at least three times. Haemolytic assays (HC50 > […]) towards human red blood cells were performed as described in the literature.

L. donovani = tested on: L. donovani; set-up: method as in PMID 27520941; conditions: read-out: anti-leishmania activity; cited from earlier work
[3] = tested on: acetic acid-induced abdominal writhes; assay: Acetic acid-induced abdominal writhes in mice; assay type: in vivo; conditions: unpublished results
[4] = Figure 1, hybrid 1 and precursors
[5] = Figure 1, hybrid 5 and precursor eugenol

Compound	IC50 ([1]; Leishmania donovani)	also measured
C=C(C(=O)OCC1CC(Cl)CC(c2cccc3ccccc23)O1)C(O)c1ccncc1 (stereo not shown) [8f, 2-(Hydroxy-pyridin-4-yl-methyl)-acrylic acid 4-chloro-6-naphthalen-1-yl-tetrahydro-pyran-2-yl methyl ester]	8.96 µg/mL and 20.5 µM	–
C=C(C(=O)OCC1CC(Cl)CC(c2cccc3ccccc23)O1)C(O)c1ccc(Br)cc1 (stereo not shown) [8h, 2-[(4-Bromo-phenyl)-hydroxy-methyl]-acrylic acid 4-chloro-6-naphthalen-1-yl-tetrahydro-pyran-2-ylmethyl ester]	17.2 µg/mL and 33.4 µM	–
2-(Hydroxy-naphthalen-2-yl-methyl)-acrylic acid 4-chloro-6-naphthalen-1-yl-tetrahydro-pyran -2-ylmethyl ester [8g]	–	IC50 (half maximal inhibitory concentration) [1]: 24.51 ± 7.5 µg/mL; IC50 [1]: 50.4 ± 15.4 µM
C=C(C(=O)OCC1CCCC(CC)O1)C(O)c1cccc([N+](=O)[O-])c1 (stereo not shown) [9b, 2-[Hydroxy-(3-nitro-phenyl)-methyl]-acrylic acid 6-ethyl-tetrahydro-pyran-2-ylmethyl ester]	13.8 µg/mL and 39.4 µM	–
C=C(C(=O)OCC1CCCC(CC)O1)C(O)c1ccncc1 (stereo not shown) [9f, 2-(Hydroxy-pyridin-4-yl-methyl)-acrylic acid 6-ethyl-tetrahydro-pyran-2-ylmethyl ester]	57.8 µg/mL and 189 µM	–
OC[C@H]1C[C@@H](Cl)C[C@@H](c2cccc3ccccc23)O1 (relative stereo) [compound 6, [(±)-(2,4,6-cis)-4-chloro-6-(naphthalen-1-yl)-tetrahydro-2H-pyran-2-yl]methanol]	47.5 µg/mL and 172 µM	Calculated ED50 [2]: 27.97 μmol·kg^–1
C=C(C(=O)OC)C(O)c1ccccc1[N+](=O)[O-] (stereo not shown) [compound 3]	–	IC50 (Leishmania; [4]): 347 µM
C=C(C(=O)Oc1ccccc1C(=O)OC)C(O)c1ccccc1[N+](=O)[O-] (stereo not shown) [compound 1]	–	IC50 (Leishmania; [4]): 28.3 µM
C=C(C(=O)OCC1CCCC(CC)O1)C(O)c1ccc([N+](=O)[O-])cc1 (stereo not shown) [9c, 2-[Hydroxy-(4-nitro-phenyl)-methyl]-acrylic acid 6-ethyl-tetrahydro-pyran-2-ylmethyl ester]	7.03 µg/mL and 20.1 µM	SIrb (selectivity index on red blood cell) = HC50/IC50 (human red blood cells): >56.91
COC(=O)c1ccccc1O [compound 2, methyl salicylate]	–	IC50 (Leishmania; [4]): 1720 µM
C=C(C(=O)OCC1CCCC(CC)O1)C(O)c1cccnc1 (stereo not shown) [9e, 2-(Hydroxy-pyridin-3-yl-methyl)-acrylic acid 6-ethyl-tetrahydro-pyran-2-ylmethyl ester]	17.7 µg/mL and 57.9 µM	–
C=C(C(=O)OCC1CCCC(CC)O1)C(O)c1ccccn1 (stereo not shown) [9d, 2-(Hydroxy-pyridin-2-yl-methyl)-acrylic acid 6-ethyl-tetrahydro-pyran-2-ylmethyl ester]	72.3 µg/mL and 240 µM	–
C=CCc1ccc(O)c(OC)c1 [compound 4, eugenol]	–	IC50 (Leishmania; [5]): 77.5 µM
C[C@@H]1[C@H](O)[C@@H](C)/C=C/C=C/C=C/C=C/C=C/C=C/C=C/[C@H](O[C@@H]2O[C@H](C)[C@@H](O)[C@H](N)[C@@H]2O)C[C@@H]2O[C@](O)(C[C@@H](O)C[C@@H](O)[C@H](O)CC[C@@H](O)C[C@@H](O)CC(=O)O[C@H]1C)C[C@H](O)[C@H]2C(=O)O [Amphotericin B, reference compound]	0.35 µg/mL and 380 nM	SIrb (selectivity index on red blood cell) = HC50/IC50 (human red blood cells): 33.05; IC50 (L. donovani): 620 nM
C=C(C(=O)OCC1CC(Cl)CC(c2cccc3ccccc23)O1)C(O)c1ccccn1 (stereo not shown) [8d, 2-(Hydroxy-pyridin-2-yl-methyl)-acrylic acid 4-chloro-6-naphthalen-1-yl-tetrahydro-pyran-2-yl methyl ester]	61.9 µg/mL and 142 µM	–
CC[C@@H]1CCC[C@H](CO)O1 [compound 5]	–	IC50 (Leishmania; [5]): 4.7 µM
C=C(C(=O)OCC1CCCC(CC)O1)C(O)c1ccc(Br)cc1 (stereo not shown) [9h, 2-[(4-Bromo-phenyl)-hydroxy-methyl]-acrylic acid 6-ethyl-tetrahydro-pyran-2-ylmethyl ester]	2.22 µg/mL and 5.81 µM	SIrb (selectivity index on red blood cell) = HC50/IC50 (human red blood cells): >180.19
C=C(C(=O)OCC1CC(Cl)CC(c2cccc3ccccc23)O1)C(O)c1ccccc1[N+](=O)[O-] (stereo not shown) [8a, 2-[Hydroxy-(2-nitro-phenyl)-methyl]-acrylic acid 4-chloro-6-naphthalen-1-yl-tetrahydro-pyran-2-ylmethyl ester]	7.09 µg/mL and 14.7 µM	SIrb (selectivity index on red blood cell) = HC50/IC50 (human red blood cells): >56.40
C=C(C(=O)OCC1CCCC(CC)O1)C(O)c1ccccc1[N+](=O)[O-] (stereo not shown) [9a, 2-[Hydroxy-(2-nitro-phenyl)-methyl]-acrylic acid 6-ethyl-tetrahydro-pyran-2-ylmethyl ester]	5.64 µg/mL and 16.1 µM	SIrb (selectivity index on red blood cell) = HC50/IC50 (human red blood cells): >70.94
2-(Hydroxy-naphthalen-2-yl-methyl)-acrylic acid 6-ethyl-tetrahydro-pyran-2-ylmethyl ester [9g]	–	IC50 (half maximal inhibitory concentration) [1]: 9.73 ± 4.8 µg/mL; IC50 [1]: 27.5 ± 13.6 µM
C=C(C(=O)OCC1CC(Cl)CC(c2cccc3ccccc23)O1)C(O)c1ccc([N+](=O)[O-])cc1 (stereo not shown) [8c, 2-[Hydroxy-(4-nitro-phenyl)-methyl]-acrylic acid 4-chloro-6-naphthalen-1-yl-tetrahydro-pyran-2-ylmethyl ester]	9.05 µg/mL and 18.8 µM	–
CC[C@@H]1CCC[C@H](CO)O1 [compound 7]	> 400 µg/mL and > 2.78 mM	Calculated ED50 [3]: 41.67 μmol·kg^–1
C=C(C(=O)OCC1CC(Cl)CC(c2cccc3ccccc23)O1)C(O)c1cccc([N+](=O)[O-])c1 (stereo not shown) [8b, 2-[Hydroxy-(3-nitro-phenyl)-methyl]-acrylic acid 4-chloro-6-naphthalen-1-yl-tetrahydro-pyran-2-yl-methyl ester]	8.76 µg/mL and 18.2 µM	–
C=C(C(=O)OCC1CC(Cl)CC(c2cccc3ccccc23)O1)C(O)c1cccnc1 (stereo not shown) [8e, 2-(Hydroxy-pyridin-3-yl-methyl)-acrylic acid 4-chloro-6-naphthalen-1-yl-tetrahydro-pyran-2-yl methyl ester]	8.76 µg/mL and 20 µM	–

Reference: publication PMC6155752, “Synthesis of 16 New Hybrids from Tetrahydropyrans Derivatives and Morita-Baylis-Hillman Adducts: In Vitro Screening against Leishmania donovani” (Molecules : A Journal of Synthetic Chemistry and Natural …, 2017)
